The source of these data is US20230106506A1, “NOVEL PqsR INVERSE AGONISTS” (Helmholtz-Zentrum Fur Infektionsforschung GmbH, priority 2020, published 2023).

Some results are limits rather than exact numbers.

Data set [1] can be described thus: Metabolic stability in mouse liver microsomes (MLM). In kind it is in vitro ADME. The conditions noted are these: 1 μM compound, 0.5 mg/mL MLM, 1 mM NADPH, 37° C., read-out: half-life (t1/2) towards MLM. The protocol: For the evaluation of phase I metabolic stability, the compound (1 μM) was incubated with 0.5 mg/mL MLM (Corning) and 1 mM NADPH at 37° C. for 0, 5, 10, 15 and 30 min. The metabolic stability of Verapamil, Diphenhydramine and Benzydamine (1 μM each) were determined in parallel to confirm the enzymatic activity of the MLM. The incubation was stopped by addition of 2 volumes of acetonitrile containing internal standard (1 μM Leucine Enkephaline). Samples were centrifuged (15 min, 3,500 rpm). Concentration of the remaining test compound at the different time points was analyzed by HPLC-MS/MS and used to determine half-life (t1/2).
For orientation: Liver microsomes are a subcellular fraction often used to study metabolism.

Data set [2] concerns P. aeruginosa pyocyanin production. The data set is described as follows: Pyocyanin assay. The conditions noted are these: Pseudomonas aeruginosa, PA14, 16 h, read-out: IC50-value towards pyocyanin production. In kind it is cell-based, P. aeruginosa strain PA14. The protocol:
Inhibition of P. aeruginosa pyocyanin production by compounds was determined photometrically as described before. In short, an overnight culture of PA14 in PPGAS medium was washed, diluted in medium to a start OD600 of 0.02, and incubated for 16 h (37° C., 200 rpm, relative humidity 75%) in the presence of test compounds. Then, cultures were extracted with chloroform and re-extracted with 0.2 M HCl. Protonated red colored pyocyanin was determined by measuring OD520 and normalizing to OD600.

Data set [3] is described as follows: Kinetic turbidimetric aqueous solubility. In kind it is physicochemical. As to conditions: aqueous buffer, kinetic from dmso stock; PBS buffer, final DMSO 2%, absorbance 620 nm; read-out: Kinetic Turbidimetric Aqueous Solubility at room temperature for 5 min. The procedure: Kinetic Turbidimetric Aqueous Solubility at room temperature for 5 min. […] Data was analyzed by fitting a four parameter sigmoidal function to the measured and normalized absorbances and AUC calculation providing access to Log S (decadic logarithm of the solubility).

As usually defined, the IC50 is the concentration that inhibits the measured activity by half. With `CC(C)Oc1ccc(-c2ncc(CNc3cc(-n4ccnc4)nc(C(F)(F)F)c3)cn2)cc1` [Compound 29, 2-(1H-Imidazol-1-yl)-N-((2-(4-isopropoxyphenyl)pyrimidin-5-yl)methyl)-6-(trifluoromethyl)pyridin-4-amine], in data set [1], the half-life at 1 µM was greater than 1.67 h. In addition, the IC50 in data set [2] lay in the range of 101 to 200 nM.

For `Fc1cccc(Oc2ccc(-c3ncc(CNc4cc(-c5cn[nH]c5)nc(C(F)(F)F)c4)cn3)cc2)c1` [Compound 52, N-((2-(4-(3-Fluorophenoxy)phenyl)pyrimidin-5-yl)methyl)-2-(1H-pyrazol-4-yl)-6-(trifluoromethyl)pyridin-4-amine], the half-life at 1 µM in data set [1] is greater than 1.67 h. Moreover, the IC50 in data set [2] was in the range of 101 to 200 nM. Take `CC(C)Oc1ccc(-c2ncc(CNc3cc(-c4cncs4)nc(C(F)(F)F)c3)cn2)cc1` [Compound 70, N-((2-(4-Isopropoxyphenyl)pyrimidin-5-yl)methyl)-2-(thiazol-5-yl)-6-(trifluoromethyl)pyridin-4-amine]: in data set [1], the half-life at 1 µM is greater than 1.67 h. For the same compound, the IC50 in data set [2] was in the range of 101 to 200 nM. For orientation: solubility means the concentration that dissolves in the medium under given conditions. With `FC(F)(F)c1cc(NCc2cnc(-c3ccc(Oc4ccc(Cl)cc4)cc3)nc2)cc(-c2cn[nH]c2)n1` [Compound 54, N-((2-(4-(4-Chlorophenoxy)phenyl)pyrimidin-5-yl)methyl)-2-(1H-pyrazol-4-yl)-6-(trifluoromethyl)pyridin-4-amine], the solubility at 5 min in data set [3] is greater than 10 µM. In data set [1], the half-life at 1 µM is greater than 1.67 h. For `FC(F)(F)c1cc(SCc2nc3cc(Oc4ccccc4)ccc3[nH]2)cc(-c2cn[nH]c2)n1` [Compound 64, 2-(((2-(1H-pyrazol-4-yl)-6-(trifluoromethyl)pyridin-4-yl)thio)methyl)-5-phenoxy-1H-benzo[d]imidazole], the solubility at 5 min in data set [3] is greater than 10 µM. In addition, in data set [2], the IC50 fell in the range of 101 to 200 nM. Taken in the same sequence, the figures for `N#Cc1cccc(-c2ncc(CNc3cc(-c4cn[nH]c4)nc(C(F)(F)F)c3)cn2)c1` [Compound 36, 3-(5-(((2-(1H-Pyrazol-4-yl)-6-(trifluoromethyl)pyridin-4-yl)amino)methyl)pyrimidin-2-yl)benzonitrile] were greater than 25 µM and 201 to 500 nM. Turning to `Fc1ccc(Oc2ccc(-c3ncc(CNc4cc(-c5cn[nH]c5)nc(C(F)(F)F)c4)cn3)cc2)cc1` [Compound 53, N-((2-(4-(4-Fluorophenoxy)phenyl)pyrimidin-5-yl)methyl)-2-(1H-pyrazol-4-yl)-6-(trifluoromethyl)pyridin-4-amine], the half-life at 1 µM in data set [1] was greater than 1.67 h. Also, the IC50 in data set [2] was in the range of 101 to 200 nM. Take `CC(C)Oc1ccc(-c2cnc(CNc3cc(-n4ccnc4)nc(C(F)(F)F)c3)nc2)cc1` [Compound 45, 2-(1H-Imidazol-1-yl)-N-((5-(4-isopropoxyphenyl)pyrimidin-2-yl)methyl)-6-(trifluoromethyl)pyridin-4-amine]: in data set [1], the half-life at 1 µM was greater than 1.67 h. Besides, the IC50 in data set [2] was 201 to 500 nM. Turning to `CC(C)Oc1ccc(-c2cnc(CNc3cc(-c4cn[nH]c4)nc(C(F)(F)F)c3)nc2)cc1` [Compound 40, N-((5-(4-Isopropoxyphenyl)pyrimidin-2-yl)methyl)-2-(1H-pyrazol-4-yl)-6-(trifluoromethyl)pyridin-4-amine], the solubility at 5 min in data set [3] is greater than 10 µM. Moreover, the IC50 in data set [2] lay within 201 to 500 nM.

`CC(C)Oc1ccc(-c2ccc(CNc3cc(-n4cncn4)nc(C(F)(F)F)c3)nc2)cc1` [Compound 25, N-((5-(4-Isopropoxyphenyl)pyridin-2-yl)methyl)-2-(1H-1,2,4-triazol-1-yl)-6-(trifluoromethyl)pyridin-4-amine]: the half-life at 1 µM in data set [1] is greater than 1.67 h. Further, the half-maximal inhibitory concentration (IC50) in data set [2] lay in the range of 101 to 200 nM.

With `CC(C)Oc1ccc(-c2cnc(CNc3cc(-c4cnn(C)c4)nc(C(F)(F)F)c3)nc2)cc1` [Compound 44, N-((5-(4-Isopropoxyphenyl)pyrimidin-2-yl)methyl)-2-(1-methyl-1H-pyrazol-4-yl)-6-(trifluoromethyl)pyridin-4-amine], in data set [1], the half-life at 1 µM was greater than 1.67 h. In addition, the IC50 in data set [2] was in the range of 201 to 500 nM. In the case of `CC(C)Oc1ccc(-n2cc(CNc3cc(-n4cncn4)nc(C(F)(F)F)c3)nn2)cc1` [Compound 06, N-((1-(4-Isopropoxyphenyl)-1H-1,2,3-triazol-4-yl)methyl)-2-(1H-1,2,4-triazol-1-yl)-6-(trifluoromethyl)pyridin-4-amine], the solubility at 5 min in data set [3] was greater than 10 µM. In addition, the half-life at 1 µM in data set [1] was 1.02 to 1.67 h. Regarding `CC(C)Oc1ccc(-c2ncc(CNc3cc(-c4cc[nH]n4)nc(C(F)(F)F)c3)cn2)cc1Cl` [Compound 32, N-((2-(3-Chloro-4-isopropoxyphenyl)pyrimidin-5-yl)methyl)-2-(1H-pyrazol-3-yl)-6-(trifluoromethyl)pyridin-4-amine], the half-life at 1 µM in data set [1] lay within 1.02 to 1.67 h. Further, in data set [2], the IC50 lay within 201 to 500 nM. In the case of `CC(C)Oc1ccc(-c2ccc(CNc3cc(-n4cncn4)nc(C(F)(F)F)c3)nc2)cc1Cl` [Compound 26, N-((5-(3-Chloro-4-isopropoxyphenyl)pyridin-2-yl)methyl)-2-(1H-1,2,4-triazol-1-yl)-6-(trifluoromethyl)pyridin-4-amine], in data set [1], the half-life at 1 µM is greater than 1.67 h. In addition, the IC50 in data set [2] lay in the range of 201 to 500 nM.

For `CC(C)Oc1ccc(-n2cc(CNc3cc(-c4cn[nH]c4)nc(C(F)(F)F)c3)nn2)cc1` [Compound 05, N-((1-(4-Isopropoxyphenyl)-1H-1,2,3-triazol-4-yl)methyl)-2-(1H-pyrazol-4-yl)-6-(trifluoromethyl)pyridin-4-amine], the solubility at 5 min in data set [3] was greater than 25 µM.

In the case of `CC(C)Oc1ccc(-c2ccc(CNc3cc(-c4cn[nH]c4)nc(C(F)(F)F)c3)nn2)cc1` [Compound 22, N-((6-(4-Isopropoxyphenyl)pyridazin-3-yl)methyl)-2-(1H-pyrazol-4-yl)-6-(trifluoromethyl)pyridin-4-amine], the solubility at 5 min in data set [3] was greater than 25 µM. In addition, in data set [2], the IC50 lay in the range of 201 to 500 nM. For the compound `CC(C)Oc1ccc(-c2ncc(CNc3cc(-c4cnc[nH]4)nc(C(F)(F)F)c3)cn2)cc1` [Compound 41, 2-(1H-Imidazol-5-yl)-N-((2-(4-isopropoxyphenyl)pyrimidin-5-yl)methyl)-6-(trifluoromethyl)pyridin-4-amine], the solubility at 5 min in data set [3] was greater than 10 µM. In addition, in data set [1], the half-life at 1 µM was greater than 1.67 h.

Take `Cc1ccc(-c2ncc(CNc3cc(-c4cn[nH]c4)nc(C(F)(F)F)c3)cn2)cc1C#N` [Compound 37, 5-(5-(((2-(1H-Pyrazol-4-yl)-6-(trifluoromethyl)pyridin-4-yl)amino)methyl)pyrimidin-2-yl)-2-methylbenzonitrile]: in data set [3], the solubility at 5 min was greater than 10 µM. For the same compound, the IC50 in data set [2] was in the range of 101 to 200 nM. As to `CC(C)Oc1ccc(-c2cnc(CNc3cc(-n4ccnc4)nc(C(F)(F)F)c3)nc2)cc1Cl` [Compound 46, N-((5-(3-Chloro-4-isopropoxyphenyl)pyrimidin-2-yl)methyl)-2-(1H-imidazol-1-yl)-6-(trifluoromethyl)pyridin-4-amine], in data set [1], the half-life at 1 µM was in the range of 1.02 to 1.67 h. The IC50 in data set [2] fell in the range of 201 to 500 nM. Turning to `FC(F)(F)c1cc(SCc2nc3cc(Oc4ccccc4)ccc3[nH]2)cc(-n2ccnc2)n1` [Compound 62, 2-(((2-(1H-Imidazol-1-yl)-6-(trifluoromethyl)pyridin-4-yl)thio)methyl)-5-phenoxy-1H-benzo[d]imidazole], the IC50 in data set [2] is 201 to 500 nM. For `CC(C)Oc1ccc(-c2ncc(CNc3cc(-n4cncn4)nc(C(F)(F)F)c3)cn2)cc1` [Compound 59, N-((2-(4-Isopropoxyphenyl)pyrimidin-5-yl)methyl)-2-(1H-1,2,4-triazol-1-yl)-6-(trifluoromethyl)pyridin-4-amine], the half-life at 1 µM in data set [1] is greater than 1.67 h. Also, the IC50 in data set [2] fell in the range of 101 to 200 nM. As for `N#Cc1cc(-c2ncc(CNc3cc(-c4cn[nH]c4)nc(C(F)(F)F)c3)cn2)ccc1Cl` [Compound 50, 5-(5-(((2-(1H-Pyrazol-4-yl)-6-(trifluoromethyl)pyridin-4-yl)amino)methyl)pyrimidin-2-yl)-2-chlorobenzonitrile], in data set [2], the IC50 was in the range of 101 to 200 nM. For the compound `N#Cc1cc(-c2ncc(CNc3cc(-c4cn[nH]c4)nc(C(F)(F)F)c3)cn2)ccc1F` [Compound 38, 5-(5-(((2-(1H-Pyrazol-4-yl)-6-(trifluoromethyl)pyridin-4-yl)amino)methyl)pyrimidin-2-yl)-2-fluorobenzonitrile], the solubility at 5 min in data set [3] was greater than 25 µM. The IC50 in data set [2] fell in the range of 101 to 200 nM. Turning to `CC(C)Oc1ccc(-c2cnc(CNc3cc(-n4cncn4)nc(C(F)(F)F)c3)nc2)cc1` [Compound 42, N-((5-(4-Isopropoxyphenyl)pyrimidin-2-yl)methyl)-2-(1H-1,2,4-triazol-1-yl)-6-(trifluoromethyl)pyridin-4-amine], the half-life at 1 µM in data set [1] is greater than 1.67 h. The IC50 in data set [2] is 201 to 500 nM. As to `FC(F)(F)c1nc(SCc2nc3cc(Oc4ccccc4)ccc3[nH]2)cc(-n2ccnc2)n1` [Compound 63, 2-(((6-(1H-Imidazol-1-yl)-2-(trifluoromethyl)pyrimidin-4-yl)thio)methyl)-5-phenoxy-1H-benzo[d]imidazole], the solubility at 5 min in data set [3] was greater than 10 µM.
